According to patent publication US5958445A, “Oral Formulations of S(+)-etodolac” (priority 1998, dated 1999):
Values after ≈ are worked out from the molar mass of the structure shown. Where two headings read alike, the source gives them in different places. Blank lines part the entries; values can stand above or below the molecule they belong to.

Experiments:
[1] = Physicians' Desk Reference, 1995; cited from earlier work
[2] = test system: acute pain; conditions: cited from earlier work
[3] = physchem; assay type: physicochemical
Experimental: Equilibrium solubility data for S(+)-etodolac based on pH was determined by placing excess amounts of the S(+)-etodolac and about 5 mL of the dissolution medium in screw-capped vials which were covered with aluminum foil and then tumbled in a 25° C. water bath for 3 days. Slurries were filtered through […] Gelman disposable filters. Filtrates were appropriately diluted with their dissolution medium and analyzed by a Cary 210 UV-VIS spectrophotometer at 278 nm.
The dissolution media used for the pH-solubility profile and ionic strength effect were HCl, HAc--NaAc, KH2 PO4 --NaOH, K2 CO3 --KHCO3, H3 BO3 --NaOH, and NaOH solutions, where the ionic strengths of media were adjusted to be 0.1 by the addition of NaCl. Those solvent systems used for cosolvent solubilization were various ratios of PEG 400, ethanol, triethanolamine (TEA), and dimethylacetamide (DMA) to aqueous solutions. pH values of the slurries were measured before and after equilibrium.

[4] = test system: animal models; conditions: in vivo; cited from earlier work
[5] = in vivo; cited from earlier work
[6] = J. Med. Chem. 1983, 26, 1778-1780; cited from earlier work
[7] = Solubility in words (Physicians' Desk Reference and description); assay type: physicochemical; conditions: acid form
[8] = 20% ethanol, organic solvent or mixture
[9] = 20% peg 400, organic solvent or mixture
[10] = 40% ethanol, organic solvent or mixture
[11] = 40% peg 400, organic solvent or mixture
[12] = 60% ethanol, organic solvent or mixture
[13] = 60% peg 400, organic solvent or mixture
[14] = 80% ethanol, organic solvent or mixture
[15] = 80% peg 400, organic solvent or mixture
[16] = 100% ethanol, organic solvent or mixture
[17] = 100% triethanolamine, organic solvent or mixture

solubility at 72 h ([3]; 2% triethanolamine): 37.7 mg/mL (≈ 131 mM) | solubility at 72 h ([3]; 4% triethanolamine): 75.9 mg/mL (≈ 264 mM) | solubility at 72 h ([3]; 6% triethanolamine): 122 mg/mL (≈ 423 mM) | solubility at 72 h ([3]; 8% triethanolamine): 226 mg/mL (≈ 785 mM) | solubility at 72 h ([3]; 10% dimethylacetamide): 0.468 mg/mL (≈ 1.63 mM) | solubility at 72 h ([3]; 10% triethanolamine): 294 mg/mL (≈ 1020 mM) | solubility at 72 h ([3]; 20% dimethylacetamide): 0.956 mg/mL (≈ 3.33 mM) | solubility at 72 h [3, 8]: 0.279 mg/mL (≈ 0.971 mM) | solubility at 72 h [3, 9]: 0.905 mg/mL (≈ 3.15 mM) | solubility at 72 h ([3]; 30% dimethylacetamide): 2.99 mg/mL (≈ 10.4 mM) | solubility at 72 h ([3]; 40% dimethylacetamide): 7.28 mg/mL (≈ 25.3 mM) | solubility at 72 h [3, 10]: 2.33 mg/mL (≈ 8.13 mM) | solubility at 72 h [3, 11]: 3.58 mg/mL (≈ 12.5 mM) | solubility at 72 h ([3]; 50% dimethylacetamide): 34.9 mg/mL (≈ 122 mM) | solubility at 72 h ([3]; 60% dimethylacetamide): 52.1 mg/mL (≈ 181 mM) | solubility at 72 h [3, 12]: 23.8 mg/mL (≈ 82.7 mM) | solubility at 72 h [3, 13]: 20.2 mg/mL (≈ 70.3 mM) | solubility at 72 h ([3]; 80% dimethylacetamide): 2630 mg/mL (≈ 9160 mM) | solubility at 72 h [3, 14]: 102 mg/mL (≈ 354 mM) | solubility at 72 h [3, 15]: 152 mg/mL (≈ 531 mM) | Solubility ([3]; 100% dimethylacetamide, 72 h): 4734. mg/mL | solubility at 72 h [3, 16]: 234 mg/mL (≈ 815 mM) | solubility at 72 h ([3]; 100% peg 400, organic solvent or mixture): 1730 mg/mL (≈ 6030 mM) | solubility at 72 h [3, 17]: 102 mg/mL (≈ 355 mM)
Compound: CCc1cccc2c3c([nH]c12)C(CC)(CC(=O)O)OCC3 (racemic) [etodolac, (±) 1,8-diethyl-1,3,4,9-tetrahydropyrano[3,4-b]indole-1-acetic acid]
solubility in alcohols, chloroform, dimethyl sulfoxide and aqueous polyethylene glycol [1]: soluble | solubility in water [1]: insoluble | symptom relief for acute pain lasting ([2]; single dose of 200 mg): 4 to 5 h | symptom relief for acute pain lasting ([2]; single dose of 400 mg): 5 to 6 h | activities in animal models [4]: exhibits anti-inflammatory, analgesic, and antipyretic activities

Compound: CCc1cccc2c3c([nH]c12)[C@@](CC)(CC(=O)O)OCC3 [R(-) etodolac]
certain purported adverse effects associated with the racemic mixture [5]: substantially reduces

solubility at 72 h ([3]; 0.001 n hcl, pH 3.24): 0.073 mg/mL (≈ 0.254 mM) | solubility at 72 h ([3]; 0.001 n naoh, pH 8.5): 32.3 mg/mL (≈ 112 mM) | solubility at 72 h ([3]; 0.01 m phosphate buffer, pH 6.4, aqueous buffer): 4.56 mg/mL (≈ 15.9 mM) | solubility at 72 h ([3]; 0.01 m phosphate buffer, pH 6.63, aqueous buffer): 7.81 mg/mL (≈ 27.2 mM) | solubility at 72 h ([3]; 0.04 m borate buffer, pH 8.61, aqueous buffer): 11.6 mg/mL (≈ 40.4 mM) | solubility at 72 h ([3]; 0.04 m phosphate buffer, pH 8.59, aqueous buffer): 15.3 mg/mL (≈ 53.1 mM) | solubility at 72 h ([3]; 0.1 m acetate buffer, pH 4.03, aqueous buffer): 0.093 mg/mL (≈ 0.324 mM) | solubility at 72 h ([3]; 0.1 m acetate buffer, pH 4.41, aqueous buffer): 0.12 mg/mL (≈ 0.418 mM) | solubility at 72 h ([3]; 0.1 m phosphate buffer, pH 4.63, aqueous buffer): 0.193 mg/mL (≈ 0.672 mM) | solubility at 72 h ([3]; 0.1 m phosphate buffer, pH 4.98, aqueous buffer): 0.263 mg/mL (≈ 0.915 mM) | solubility at 72 h ([3]; 0.1 m phosphate buffer, pH 5.82, aqueous buffer): 1.21 mg/mL (≈ 4.22 mM) | solubility at 72 h ([3]; 0.1 n hcl, pH 1.14): 0.08 mg/mL (≈ 0.278 mM) | solubility at 72 h ([3]; 0.1 n hcl, pH 2.13): 0.08 mg/mL (≈ 0.278 mM) | solubility at 72 h ([3]; 0.1 n naoh, pH 7.15): 29.4 mg/mL (≈ 102 mM) | solubility at 72 h ([3]; 0.2 n naoh, pH 7.3): 58.8 mg/mL (≈ 205 mM) | solubility at 72 h ([3]; 2% triethanolamine): 39.4 mg/mL (≈ 137 mM) | solubility at 72 h ([3]; 4% triethanolamine): 77.8 mg/mL (≈ 271 mM) | solubility at 72 h ([3]; 6% triethanolamine): 126 mg/mL (≈ 439 mM) | solubility at 72 h ([3]; 8% triethanolamine): 235 mg/mL (≈ 816 mM) | solubility at 72 h ([3]; 10% dimethylacetamide): 0.468 mg/mL (≈ 1.63 mM) | solubility at 72 h ([3]; 10% triethanolamine): 295 mg/mL (≈ 1030 mM) | solubility at 72 h ([3]; 20% dimethylacetamide): 1.25 mg/mL (≈ 4.34 mM) | solubility at 72 h [3, 8]: 0.412 mg/mL (≈ 1.43 mM) | solubility at 72 h [3, 9]: 0.663 mg/mL (≈ 2.31 mM) | solubility at 72 h ([3]; 30% dimethylacetamide): 3.56 mg/mL (≈ 12.4 mM) | solubility at 72 h ([3]; 40% dimethylacetamide): 9.96 mg/mL (≈ 34.6 mM) | solubility at 72 h [3, 10]: 3.53 mg/mL (≈ 12.3 mM) | solubility at 72 h [3, 11]: 3.06 mg/mL (≈ 10.6 mM) | solubility at 72 h ([3]; 50% dimethylacetamide): 89.1 mg/mL (≈ 310 mM) | solubility at 72 h ([3]; 60% dimethylacetamide): 256 mg/mL (≈ 892 mM) | solubility at 72 h [3, 12]: 43.7 mg/mL (≈ 152 mM) | solubility at 72 h [3, 13]: 16.3 mg/mL (≈ 56.6 mM) | solubility at 72 h ([3]; 80% dimethylacetamide): 419 mg/mL (≈ 1460 mM) | solubility at 72 h [3, 14]: 126 mg/mL (≈ 439 mM) | solubility at 72 h [3, 15]: 643 mg/mL (≈ 2240 mM) | solubility at 72 h ([3]; 100% dimethylacetamide, organic solvent or mixture): 758 mg/mL (≈ 2640 mM) | solubility at 72 h [3, 16]: 284 mg/mL (≈ 987 mM) | Solubility ([3]; 100% peg 400, 72 h): 3460. mg/mL | solubility at 72 h [3, 17]: 81.7 mg/mL (≈ 284 mM) | solubility in alcohols, dimethyl sulfoxide, propylene glycol and aqueous polyethylene glycols [7]: soluble
Compound: CCc1cccc2c3c([nH]c12)[C@](CC)(CC(=O)O)OCC3 [S(+)-etodolac, S(+) 1,8-diethyl-1,3,4,9-tetrahydropyrano[3,4-b]indole-1-acetic acid]
share of the effects of etodolac due to the enantiomer [6]: virtually all of the effects of etodolac are due to the S(+) enantiomer
